{
  "source": "paper PMC13070491",
  "about": "“Single-nucleus transcriptomics, pharmacokinetics, and pharmacodynamics of CDK4/6 and mTOR inhibition in a Phase 0/1 trial of recurrent high-grade glioma” (Neuro-Oncology, 2025)",
  "key": {"mTOR": {"test_system": "mTOR", "settings": "threshold basis for Phase 1 expansion; no reference given; read-out: biochemical IC50; cited from earlier work"}, "[1]": {"assay": "CNS penetration: total and unbound drug concentrations in tumor regions, CSF and plasma (LC-MS/MS, equilibrium dialysis);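 also: drug levels in patient tumor tissue from contrast-enhancing and non-enhancing regions sampled under MRI-guided neuronavigation, with plasma and CSF drawn during surgical resection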", "settings": "for Everolimus.CSF / Everolimus.Enhancing.tumor / Everolimus.Non-enhancing.tumor / Everolimus.Plasma.conc / Everolimus.Unbound.enhancing / Everolimus.Unbound.non-enhancing / Everolimus.Unbound.plasma: per patient"}, "[2]": {"settings": "Level 0: Ribociclib 400mg QD + Everolimus 2.5mg QD, sampling 1-3 Hours"}, "[3]": {"settings": "Level 0: Ribociclib 400mg QD + Everolimus 2.5mg QD, sampling 7-9 Hours"}, "[4]": {"settings": "Level 0: Ribociclib 400mg QD + Everolimus 2.5mg QD, sampling 23-25 Hours"}, "[5]": {"settings": "Level 1: Ribociclib 600mg QD + Everolimus 2.5mg QD, sampling 1-3 Hours"}, "[6]": {"settings": "Level 1: Ribociclib 600mg QD + Everolimus 2.5mg QD, sampling 7-9 Hours"}, "[7]": {"settings": "Level 2: Ribociclib 600mg QD + Everolimus 5mg QD, sampling 7-9 Hours"}, "[8]": {"settings": "Level 3: Ribociclib 600mg QD + Everolimus 10mg QD, sampling 7-9 Hours"}, "[9]": {"settings": "Level 4: Ribociclib 600mg QD + Everolimus 50mg once on Day 5, sampling 7-9 Hours"}, "[10]": {"settings": "Level 5: Ribociclib 600mg QD + Everolimus 60mg once on Day 5, sampling 7-9 Hours"}},
  "note": "Values joined by “and” are separate entries in the source; they are usually repeats but may differ in a detail not shown here. Equal entries are not always repeated.",
  "data": [
    {"smiles": "CO[C@H]1C[C@@H]2CC[C@@H](C)[C@@](O)(O2)C(=O)C(=O)N2CCCC[C@H]2C(=O)O[C@H]([C@H](C)C[C@@H]2CC[C@@H](OCCO)[C@H](OC)C2)CC(=O)[C@H](C)/C=C(\\C)[C@@H](O)[C@@H](OC)C(=O)[C@H](C)C[C@H](C)/C=C/C=C/C=C/1C", "note": "[Everolimus, everolimus]", "values": [
      {"measurement": "IC50", "setting": "mTOR", "result": 2, "unit": "nM"},
      {"measurement": "Total everolimus, CSF, MAX", "setting": "[1]; 2.5 mg QD 5 days", "result": 0.4, "unit": "nM"},
      {"measurement": "Total everolimus, CSF, MIN", "setting": "[1]; 2.5 mg QD 5 days", "result": "BLQ"},
      {"measurement": "Total everolimus, Enhancing tumor, MIN", "setting": "[1]; 2.5 mg QD 5 days", "result": "BLQ"},
      {"measurement": "Total everolimus, Non-enhancing tumor, MIN", "setting": "[1]; 2.5 mg QD 5 days", "result": "BLQ"},
      {"measurement": "Total everolimus, CSF, MAX", "setting": "[1]; 5 mg QD 5 days", "result": "BLQ"},
      {"measurement": "Total everolimus, CSF, MED", "setting": "[1]; 5 mg QD 5 days", "result": "BLQ"},
      {"measurement": "Total everolimus, CSF, MIN", "setting": "[1]; 5 mg QD 5 days", "result": "BLQ"},
      {"measurement": "Total everolimus, CSF, MED", "setting": "[1]; 10 mg QD 5 days", "result": 1.4, "unit": "nM"},
      {"measurement": "Total everolimus, CSF, MIN", "setting": "[1]; 10 mg QD 5 days", "result": "BLQ"},
      {"measurement": "Total everolimus, Enhancing tumor, MIN", "setting": "[1]; 10 mg QD 5 days", "result": "BLQ"},
      {"measurement": "Total everolimus, CSF, MIN", "setting": "[1]; 50 mg single dose", "result": "BLQ"},
      {"measurement": "Total everolimus, Non-enhancing tumor, MIN", "setting": "[1]; 50 mg single dose", "result": "BLQ"},
      {"measurement": "Total everolimus, CSF, MAX", "setting": "[1]; 60 mg single dose", "result": 0.57, "unit": "nM"},
      {"measurement": "Total everolimus, CSF, MED", "setting": "[1]; 60 mg single dose", "result": 0.57, "unit": "nM"},
      {"measurement": "Total everolimus, CSF, MIN", "setting": "[1]; 60 mg single dose", "result": "BLQ"},
      {"measurement": "Total everolimus, CSF, MAX", "setting": "[1]; 70 mg single dose", "result": 11.4, "unit": "nM"},
      {"measurement": "Total everolimus, CSF, MED", "setting": "[1]; 70 mg single dose", "result": 6.35, "unit": "nM"},
      {"measurement": "Total everolimus, CSF, MIN", "setting": "[1]; 70 mg single dose", "result": "BLQ"},
      {"measurement": "Everolimus.CSF", "setting": "[1]; [2]", "result": "BLQ"},
      {"measurement": "Everolimus.Enhancing.tumor", "setting": "[1]; [2]", "result": "5.92E-03 and 4.32E-03"},
      {"measurement": "Everolimus.Non-enhancing.tumor", "setting": "[1]; [2]", "result": "2.88E-03 and BLQ"},
      {"measurement": "Everolimus.Plasma.conc", "setting": "[1]; [2]", "result": "0.02558 and 0.00883"},
      {"measurement": "Everolimus.Unbound.enhancing", "setting": "[1]; [2]", "result": "BLQ"},
      {"measurement": "Everolimus.Unbound.non-enhancing", "setting": "[1]; [2]", "result": "BLQ"},
      {"measurement": "Everolimus.Unbound.plasma", "setting": "[1]; [2]", "result": "BLQ"},
      {"measurement": "Everolimus.CSF", "setting": "[1]; [3]", "result": "BLQ"},
      {"measurement": "Everolimus.Enhancing.tumor", "setting": "[1]; [3]", "result": "BLQ and 1.69E-02"},
      {"measurement": "Everolimus.Non-enhancing.tumor", "setting": "[1]; [3]", "result": "BLQ and 2.24E-03"},
      {"measurement": "Everolimus.Plasma.conc", "setting": "[1]; [3]", "result": "0.00955 and 0.00618"},
      {"measurement": "Everolimus.Unbound.enhancing", "setting": "[1]; [3]", "result": "BLQ"},
      {"measurement": "Everolimus.Unbound.non-enhancing", "setting": "[1]; [3]", "result": "BLQ"},
      {"measurement": "Everolimus.Unbound.plasma", "setting": "[1]; [3]", "result": "BLQ"},
      {"measurement": "Everolimus.CSF", "setting": "[1]; [4]", "result": "BLQ"},
      {"measurement": "Everolimus.Enhancing.tumor", "setting": "[1]; [4]", "result": "BLQ and 4.44E-03"},
      {"measurement": "Everolimus.Non-enhancing.tumor", "setting": "[1]; [4]", "result": "BLQ and 5.84E-03"},
      {"measurement": "Everolimus.Plasma.conc", "setting": "[1]; [4]", "result": "0.00384 and 0.00714"},
      {"measurement": "Everolimus.Unbound.enhancing", "setting": "[1]; [4]", "result": "BLQ"},
      {"measurement": "Everolimus.Unbound.non-enhancing", "setting": "[1]; [4]", "result": "BLQ"},
      {"measurement": "Everolimus.Unbound.plasma", "setting": "[1]; [4]", "result": "BLQ"},
      {"measurement": "Everolimus.CSF", "setting": "[1]; [5]", "result": "3.90E-04"},
      {"measurement": "Everolimus.Enhancing.tumor", "setting": "[1]; [5]", "result": "4.40E-03"},
      {"measurement": "Everolimus.Non-enhancing.tumor", "setting": "[1]; [5]", "result": "4.72E-03"},
      {"measurement": "Everolimus.Plasma.conc", "setting": "[1]; [5]", "result": 0.01738},
      {"measurement": "Everolimus.Unbound.enhancing", "setting": "[1]; [5]", "result": "BLQ"},
      {"measurement": "Everolimus.Unbound.non-enhancing", "setting": "[1]; [5]", "result": "BLQ"},
      {"measurement": "Everolimus.Unbound.plasma", "setting": "[1]; [5]", "result": "BLQ"},
      {"measurement": "Everolimus.CSF", "setting": "[1]; [6]", "result": "2.70E-04 and 3.30E-04"},
      {"measurement": "Everolimus.Enhancing.tumor", "setting": "[1]; [6]", "result": "8.34E-02 and 9.20E-03"},
      {"measurement": "Everolimus.Non-enhancing.tumor", "setting": "[1]; [6]", "result": "3.53E-02 and 8.80E-03"},
      {"measurement": "Everolimus.Plasma.conc", "setting": "[1]; [6]", "result": "0.03462 and 0.01401"},
      {"measurement": "Everolimus.Unbound.enhancing", "setting": "[1]; [6]", "result": "BLQ"},
      {"measurement": "Everolimus.Unbound.non-enhancing", "setting": "[1]; [6]", "result": "BLQ"},
      {"measurement": "Everolimus.Unbound.plasma", "setting": "[1]; [6]", "result": "BLQ"},
      {"measurement": "Everolimus.CSF", "setting": "[1]; [7]", "result": "BLQ"},
      {"measurement": "Everolimus.Enhancing.tumor", "setting": "[1]; [7]", "result": "3.98E-02 and 1.11E-02 and 1.66E-02"},
      {"measurement": "Everolimus.Non-enhancing.tumor", "setting": "[1]; [7]", "result": "2.02E-02 and 9.20E-03 and 1.03E-02"},
      {"measurement": "Everolimus.Plasma.conc", "setting": "[1]; [7]", "result": "0.0225 and 0.0084 and 0.0281"},
      {"measurement": "Everolimus.Unbound.enhancing", "setting": "[1]; [7]", "result": "BLQ"},
      {"measurement": "Everolimus.Unbound.non-enhancing", "setting": "[1]; [7]", "result": "BLQ"},
      {"measurement": "Everolimus.Unbound.plasma", "setting": "[1]; [7]", "result": "BLQ"},
      {"measurement": "Everolimus.CSF", "setting": "[1]; [8]", "result": "BLQ and 2.50E-03 and 3.00E-04"},
      {"measurement": "Everolimus.Enhancing.tumor", "setting": "[1]; [8]", "result": "6.13E-02 and 2.67E-02 and BLQ"},
      {"measurement": "Everolimus.Non-enhancing.tumor", "setting": "[1]; [8]", "result": "3.33E-02 and 4.50E-03 and 5.00E-03"},
      {"measurement": "Everolimus.Plasma.conc", "setting": "[1]; [8]", "result": "0.0311 and 0.0616 and 0.0431"},
      {"measurement": "Everolimus.Unbound.enhancing", "setting": "[1]; [8]", "result": "BLQ"},
      {"measurement": "Everolimus.Unbound.non-enhancing", "setting": "[1]; [8]", "result": "BLQ"},
      {"measurement": "Everolimus.Unbound.plasma", "setting": "[1]; [8]", "result": "BLQ"},
      {"measurement": "Everolimus.CSF", "setting": "[1]; [9]", "result": "BLQ and 3.70E-04 and 1.50E-03"},
      {"measurement": "Everolimus.Enhancing.tumor", "setting": "[1]; [9]", "result": "5.16E-02 and 5.45E-02 and 7.41E-02"},
      {"measurement": "Everolimus.Non-enhancing.tumor", "setting": "[1]; [9]", "result": "2.51E-02 and 6.30E-03"},
      {"measurement": "Everolimus.Plasma.conc", "setting": "[1]; [9]", "result": "0.07949 and 0.06123 and 0.063"},
      {"measurement": "Everolimus.Unbound.enhancing", "setting": "[1]; [9]", "result": "BLQ"},
      {"measurement": "Everolimus.Unbound.non-enhancing", "setting": "[1]; [9]", "result": "BLQ"},
      {"measurement": "Everolimus.Unbound.plasma", "setting": "[1]; [9]", "result": "4.59E-04 and 2.99E-04 and 3.00E-04"},
      {"measurement": "Everolimus.CSF", "setting": "[1]; [10]", "result": "5.70E-04 and BLQ"},
      {"measurement": "Everolimus.Enhancing.tumor", "setting": "[1]; [10]", "result": "8.76E-02 and 3.04E-02 and 9.84E-03"},
      {"measurement": "Everolimus.Non-enhancing.tumor", "setting": "[1]; [10]", "result": "3.61E-02 and 1.38E-02 and 1.13E-02"},
      {"measurement": "Everolimus.Plasma.conc", "setting": "[1]; [10]", "result": "0.07053 and 0.09226 and 0.06809"},
      {"measurement": "Everolimus.Unbound.enhancing", "setting": "[1]; [10]", "result": "BLQ"},
      {"measurement": "Everolimus.Unbound.non-enhancing", "setting": "[1]; [10]", "result": "BLQ"}
    ]}
  ]
}
